Test results published in US11542295B2, “Use of 20-hydroxyecdysone and the derivatives thereof in the treatment of myopathies” (BIOPHYTIS, priority 2017, dated 2023).

Assays:
[1] = system: BMP4 (bone morphogenetic protein 4); assay: Heart mRNA expression of BMP4 (semi-quantitative PCR); assay type: in vivo, mouse; conditions: mdx mice, 50 mg/kg*day, two months; p=0.0529
Description: Twelve-week-old C57BL10 gene pool (wild mice referred to as “C57” in the figures) and C57BL10 mdx (mouse model of Duchenne muscular dystrophy, referred to as “mdx” in the figures) male mice, produced at Charles Rivers, were used. Two groups of mdx were chronically exposed per os either to BIO101 (number of mice n=9) or to BIO103 (number of mice n=9) at a dose of 50 mg/kg*day. A group of C57 mice (number of mice n=5) and a group of mdx mice (number of mice n=15) received the vehicle, i.e. no treatment. The animals of all of the groups were tested for their functional capacity (exertion tolerance test) after two months of treatment. […]
An assessment of markers of fibrosis and cardiac hypertrophy is carried out at the end of the protocol, i.e. after two months of treatment. […] The extract RNA is quantified by spectrophotometry then the quality thereof is verified and validated with the Experion RNA StdSens Analysis Kit (Bio-Rad). […] Finally, semi-quantitative PCR analysis was carried out using SYBR® Green (Roche), a DNA intercalating agent and a LightCycler® 480 Real Time PCR (Roche) apparatus on 384-well plates. The molecular markers measured are as follows: • CTGF and collagen I: connective tissue growth factor (CTGF) is associated with healing and with many pathological fibrotic processes including DMD (Brigstock 2010; Song Y. 2017). […]

[2] = system: Human DMD skeletal muscle cells (KM571DMD10FL Cl1); assay: Differentiation of human DMD myoblasts into myotubes; assay type: cell-based; conditions: 10 μM, vs untreated control cells
Description: Various parameters have been measured to assess myotube differentiation. Human DMD skeletal muscle cells (KM571DMD10FL Cl1) were differentiated for 3 days then incubated with or without BIO101 at 10 μM. The fusion index and the number of nuclei per myotube were validated as relevant and sensitive indicators of myotube differentiation.
The fusion index illustrated in FIG. 7A represents the percentage of differentiated cell nuclei with respect to the cell total.
The number of nuclei per myotube is illustrated in FIG. 7B, 300 myotubes were counted.
The myotube diameter is illustrated in FIG. 7C, 150 myotubes were measured per condition.
The results in FIGS. 7A,7B and 7C show the mean data measured during three independent experiments, plus or minus the standard error (SEM).

[3] = system: AKT; assay: AKT phosphorylation in human DMD myocytes (Western Blot); assay type: cell-based; conditions: 10 μM, 10 minutes to 24 hours, vs untreated control
Description: (§1) Human DMD skeletal muscle cells (KM571DMD1OFL Cl1) were differentiated for 5 days then optionally incubated with BIO101 at 10 μM for periods of between 10 minutes and 24 hours.
(§2) A densitometric analysis of results of at least 6 independent Western Blot experiments described the effects of BIO101 on the phosphorylation of AKT (FIG. 8A) and ERK1/2 (FIG. 8B) is shown, *p<0.05 versus the untreated control.

[4] = system: ERK1/2; assay: ERK1/2 phosphorylation in human DMD myocytes (Western Blot); assay type: cell-based; conditions: 10 μM, 10 minutes to 24 hours, vs untreated control
Description: as §1, §2

SMILES: CC(C)(O)CC[C@@H](O)[C@](C)(O)[C@H]1CC[C@@]2(O)C3=CC(=O)[C@@H]4C[C@@H](O)[C@@H](O)C[C@]4(C)[C@H]3CC[C@]12C [BIO101, 20-hydroxyecdysone]
- genic expression of BMP4 in heart compared to control mdx animals [1]: reduces
- increase in the myotube diameter ([2]; p<0.001): 21%
- increase of the fusion index ([2]; p<0.001): +7%
- increase in the number of nuclei per myotube ([2]; p<0.01): 34%
- p-AKT (phosphorylation of AKT) [3]: significant increase
- p-ERK1/2 (phosphorylation of ERK1/2) [4]: significant increase
